Data published in patent US8143282B2, “Heterocyclic compounds” (S*BIO Pte Ltd., priority 2005, dated 2012).

Key:
HDAC1 enzyme = target: T1, HDAC1 enzyme (Homo sapiens, UniProt Q13547); assay: In vitro HDAC assay for determination of IC50 values (BIOMOL fluorescent-based HDAC activity assay); assay type: biochemical
T1 construct: Amplification of human HDAC1 coding region from this cDNA library was cloned separately into the baculovirus expression pDEST20 vector; made in house; host or cells: SF9 insect cells, pDEST20-HDAC1 baculovirus
How it was run: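 Recombinant GST-HDAC1, cloned from SW620 cDNA and expressed in Sf9 cells, tested in a fluorogenic Fluor de Lys deacetylase assay. Developer was added for 10 min and fluorescence read at 360/460 nm. IC50 came from concentration series.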

Colo205 cells = assay: Cell-based proliferation assay for GI50 (CyQUANT), Colo205; conditions: Homo sapiens, COLO 205, 96 h treatment, read-out: Cellular or Growth Inhibition Activity in Colo205 cells, GI50
How it was run: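 Cells were seeded at 1000 (PC3), 5000 (Colo205), 6000 (HCT116) or 4000 (HEP3B) per well and left 24 h at 37° C. Compound treatment lasted 96 h. Growth was read by CyQUANT, and GI50 (50% growth inhibition) came from dose-response curves.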

[1] = Measurement of microsomal stability; assay type: in vitro ADME; conditions: pooled human liver microsomes, pH 7.4; human liver microsome, 5 μM test compound, 1.0 mg/ml microsomal protein
Protocol: Metabolic stability measurements in the in vitro using liver microsomes aids in the prediction of the in vivo hepatic clearance and the compound stability towards phase I biotransformation reactions mediated by P450 isozymes.
Pooled human liver microsome (HLM was purchased from BD Gentest (BD BioSciences). The incubations consisted of test compound (5 μM) or control compound (Verapamil), NADPH-generating system solution A (25 mM NADP^+, 66 mM glucose-6-phosphate, 66 mM MgCl2 in H2O), NADPH-generating system solution B (40 U/ml glucose-6-phosphate dehydrogenase in 5 mM sodium citrate) and 1.0 mg/ml microsomal protein, respectively, in 100 mM potassium phosphate buffer (pH 7.4). Samples were incubated for 0, 5, 15, 30, 45, 60 min. Reaction was terminated with ice-cold 80% acetonitrile and 20% DMSO. Samples were subsequently centrifuged at 4° C. for 15 min at 2,000 rpm. 100 μL of the supernatant was transferred to the LC-MS Plate for analysis. Before quantitative analysis, the compound was tuned in LC/MS machine to get the optimized MS condition. Liquid chromatography was performed on a Luna C18 column (Phenomenex U.S.A, Torrance, Calif.) (2×50 mm, 5 μM). % of the compound remaining (by area) at each time point is calculated with respect to time 0 min. Plot % remaining against time (min) to obtain the curve and use the Prism software to obtain the t1/2.

T1 sequence (Q13547 whole entry): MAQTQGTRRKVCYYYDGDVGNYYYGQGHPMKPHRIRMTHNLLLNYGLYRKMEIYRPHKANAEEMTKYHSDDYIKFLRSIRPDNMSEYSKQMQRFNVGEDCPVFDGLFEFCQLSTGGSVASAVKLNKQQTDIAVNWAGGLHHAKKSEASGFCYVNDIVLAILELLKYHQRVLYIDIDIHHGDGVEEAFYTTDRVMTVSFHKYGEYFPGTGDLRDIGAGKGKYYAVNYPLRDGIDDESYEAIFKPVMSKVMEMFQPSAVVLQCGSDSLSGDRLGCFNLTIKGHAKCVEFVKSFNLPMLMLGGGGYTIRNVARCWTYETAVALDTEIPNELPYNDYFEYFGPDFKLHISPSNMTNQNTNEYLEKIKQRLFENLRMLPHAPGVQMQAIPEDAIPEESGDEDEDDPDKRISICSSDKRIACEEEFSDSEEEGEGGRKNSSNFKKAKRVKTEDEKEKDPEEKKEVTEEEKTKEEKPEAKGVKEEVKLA

SMILES	IC50 (HDAC1 enzyme) [nM]	GI50 (Colo205 cells) [nM]	half-life at 5 μM [1] [min]
CC(C)c1nc2cc(/C=C/C(=O)NO)ccc2n1CC(C)(C)CN(C)C [Compound 2, 3-[1-(3-Dimethylamino-2,2-dimethyl-propyl)-2-isopropyl-1H-benzoimidazol-5-yl]-N-hydroxy-acrylamide]	380	2120	> 30
C=CCCc1nc2cc(/C=C/C(=O)NO)ccc2n1CCN(CC)CC [Compound 11, 3-[2-But-3-enyl-1-(2-diethylamino-ethyl)-1H-benzoimidazol-5-yl]-N-hydroxy-acrylamide]	70	480	> 30
C#CCCc1nc2cc(/C=C/C(=O)NO)ccc2n1CCN(CC)CC [Compound 12, 3-[2-But-3-ynyl-1-(2-diethylamino-ethyl)-1H-benzoimidazol-5-yl]-N-hydroxy-acrylamide]	64	510	> 30
CCN(CC)CCn1c(CCC(F)(F)F)nc2cc(/C=C/C(=O)NO)ccc21 [Compound 14, 3-[1-(2-Diethylamino-ethyl)-2-(3,3,3-trifluoro-propyl)-1H-benzoimidazol-5-yl]-N-hydroxy-acrylamide]	77	630	> 30
CC(C)NCCn1c(CC(C)(C)C)nc2cc(/C=C/C(=O)NO)ccc21 [Compound 19]	64	530	> 30
CC(C)Cc1nc2cc(/C=C/C(=O)NO)ccc2n1CCNC(C)C [Compound 35, N-Hydroxy-3-[2-isobutyl-1-(2-isopropylamino-ethyl)-1H-benzoimidazol-5-yl]-acrylamide]	82	660	> 30
CCCCc1nc2cc(/C=C/C(=O)NO)ccc2n1CCN(C)C(C)C [Compound 78, 3-{2-Butyl-1-[2-(isopropyl-methyl-amino)-ethyl]-1H-benzoimidazol-5-yl}-N-hydroxy-acrylamide]	44	540	> 30
CCCCCCc1nc2cc(/C=C/C(=O)NO)ccc2n1C1CCNC1 (centres unmarked) [Compound 80, 3-(2-Hexyl-1-pyrrolidin-3-yl-1H-benzoimidazol-5-yl)-N-hydroxy-acrylamide]	40	1370	> 30
CCCCCN(CC)CCn1cnc2cc(/C=C/C(=O)NO)ccc21 [Compound 88, 3-{1-[2-(Ethyl-pentyl-amino)-ethyl]-1H-benzoimidazol-5-yl}-N-hydroxy-acrylamide]	47	550	> 30
CCCCN(CCn1cnc2cc(/C=C/C(=O)NO)ccc21)C(C)C [Compound 108, 3-{1-[2-(Butyl-isopropyl-amino)-ethyl]-1H-benzoimidazol-5-yl}-N-hydroxy-acrylamide]	43	440	> 30
CCCCCCN(CC)CCn1c(C(F)(F)F)nc2cc(/C=C/C(=O)NO)ccc21 [Compound 118, 3-{1-[2-(Ethyl-hexyl-amino)-ethyl]-2-trifluoromethyl-1H-benzoimidazol-5-yl}-N-hydroxy-acrylamide]	480	1880	–
CCCCN(CCCC)CCn1c(CCC)nc2cc(/C=C/C(=O)NO)ccc21 [Compound 119, (E)-3-(1-(2-(dibutylamino)ethyl)-2-propyl-1H-benzo[d]imidazol-5-yl)-N-hydroxyacrylamide]	180	770	–
CCCN(CCC)CCn1cnc2cc(/C=C/C(=O)NO)ccc21 [Compound 120, 3-[1-(2-Dipropylamino-ethyl)-1H-benzoimidazol-5-yl]-N-hydroxy-acrylamide]	110	490	–
CC(C)CCN(CCn1cnc2cc(/C=C/C(=O)NO)ccc21)C(C)C [Compound 121, N-Hydroxy-3-(1-{2-[isopropyl-(3-methyl-butyl)-amino]-ethyl}-1H-benzoimidazol-5-yl)-acrylamide]	79	490	–
CN(CCn1cnc2cc(/C=C/C(=O)NO)ccc21)CCC(C)(C)C [Compound 122, 3-(1-{2-[(3,3-Dimethyl-butyl)-methyl-amino]-ethyl}-1H-benzoimidazol-5-yl)-N-hydroxy-acrylamide]	37	150	–
CCC(CC)CN(C)CCn1cnc2cc(/C=C/C(=O)NO)ccc21 [Compound 123, 3-(1-{2-[(2-Ethyl-butyl)-methyl-amino]-ethyl}-1H-benzoimidazol-5-yl)-N-hydroxy-acrylamide]	27	150	–
CC(C)(C)CCN(CCn1cnc2cc(/C=C/C(=O)NO)ccc21)CCC(C)(C)C [Compound 124, (E)-3-(1-(2-(bis(3,3-dimethylbutyl)amino)ethyl)-1H-benzo[d]imidazol-5-yl)-N-hydroxyacrylamide]	85	540	–
CC(C)CN(CCn1cnc2cc(/C=C/C(=O)NO)ccc21)CC(C)C [Compound 125, (E)-3-(1-(2-(diisobutylamino)ethyl)-1H-benzo[d]imidazol-5-yl)-N-hydroxyacrylamide]	160	680	–
CC(C)(C)CCNCCn1cnc2cc(/C=C/C(=O)NO)ccc21 [Compound 126, 3-{1-[2-(3,3-Dimethyl-butylamino)-ethyl]-1H-benzoimidazol-5-yl}-N-hydroxy-acrylamide]	42	420	–
C=CCCCN(C)CCn1cnc2cc(/C=C/C(=O)NO)ccc21 [Compound 127, N-Hydroxy-3-{1-[2-(methyl-pent-4-enyl-amino)-ethyl]-1H-benzoimidazol-5-yl}-acrylamide]	78	340	–
CCCN(CCn1cnc2cc(/C=C/C(=O)NO)ccc21)CCC(C)(C)C [Compound 128, 3-(1-{2-[(3,3-Dimethyl-butyl)-propyl-amino]-ethyl}-1H-benzoimidazol-5-yl)-N-hydroxy-acrylamide]	31	140	–
CSc1nc2cc(/C=C/C(=O)NO)ccc2n1CC(C)(C)CN(C)C [Compound 129, 3-[1-(3-Dimethylamino-2,2-dimethyl-propyl)-2-methylsulfanyl-1H-benzoimidazol-5-yl]-N-hydroxy-acrylamide]	770	3900	–
CC(C)(C)CCNCCn1c(CC(C)(C)C)nc2cc(/C=C/C(=O)NO)ccc21 [Compound 131, 3-[1-[2-(3,3-Dimethyl-butylamino)-ethyl]-2-(2,2-dimethyl-propyl)-1H-benzoimidazol-5-yl]-N-hydroxy-acrylamide]	66	330	–
CC(C)(C)CNCCn1cnc2cc(/C=C/C(=O)NO)ccc21 [Compound 133, 3-{1-[2-(2,2-Dimethyl-propylamino)-ethyl]-1H-benzoimidazol-5-yl}-N-hydroxy-acrylamide]	72	560	–
CCCN(CCn1cnc2cc(/C=C/C(=O)NO)ccc21)CC(C)(C)C [Compound 134, 3-(1-{2-[(2,2-Dimethyl-propyl)-propyl-amino]-ethyl}-1H-benzoimidazol-5-yl)-N-hydroxy-acrylamide]	220	2300	–
CCc1nc2cc(/C=C/C(=O)NO)ccc2n1CCNCCC(C)(C)C [Compound 135, 3-{1-[2-(3,3-Dimethyl-butylamino)-ethyl]-2-ethyl-1H-benzoimidazol-5-yl}-N-hydroxy-acrylamide]	74	260	–
CCCc1nc2cc(/C=C/C(=O)NO)ccc2n1CCN(C)CCC(C)(C)C [Compound 136, 3-(1-{2-[(3,3-Dimethyl-butyl)-methyl-amino]-ethyl}-2-propyl-1H-benzoimidazol-5-yl)-N-hydroxy-acrylamide]	53	390	–
CC(C)(C)CCN(CCn1cnc2cc(/C=C/C(=O)NO)ccc21)CC(F)(F)F [Compound 137, 3-(1-{2-[(3,3-Dimethyl-butyl)-(2,2,2-trifluoro-ethyl)-amino]-ethyl}-1H-benzoimidazol-5-yl)-N-hydroxy-acrylamide]	93	1970	–
CCCCN(CCn1cnc2cc(/C=C/C(=O)NO)ccc21)CC(F)(F)F [Compound 138, 3-(1-{2-[Butyl-(2,2,2-trifluoro-ethyl)-amino]-ethyl}-1H-benzoimidazol-5-yl)-N-hydroxy-acrylamide]	100	1960	–
